Experimental data: US11219588B2, “Use of polyamines in compositions and methods for inducing or promoting skin darkening and regulating melanogenesis” (Agency for Science, Technology and Research, priority 2016, dated 2022)
Where two headings read alike, the source gives them in different places.

Legend:
[1] = tested on: Human melanocytes
Description: (§1) Human keratinocytes and melanocytes were cultured in the presence of increasing concentrations of a polycationic aliphatic amine transport inhibitor, trimer44NMe, or DFMO, and the cell viability was determined by an MTT assay.

[2] = tested on: human primary melanocytes; assay: Melanin content of melanocytes, putrescine with and without transport inhibitor; assay type: cell-based; conditions: putrescine plus trimer44NMe vs putrescine alone
Description: To confirm that import of putrescine is required for the pigmentation phenotype observed in melanocytes, human primary melanocytes were cultured with putrescine with and without a polycationic aliphatic amine transport inhibitor (trimer44NMe).

[3] = tested on: primary human melanocytes; conditions: long term culture with putrescine
[4] = tested on: primary human melanocytes; conditions: 3 and 6 days after incubation with putrescine
Source text: FIG. 8 is a dot plot showing the viability of cells untreated, treated for 3 days, or treated for 6 days with putrescine.

[5] = tested on: melanogenesis-related genes (TYR, TYRP1, DCT and PMEL) in NHEM-aLP cells; conditions: 2 mM putrescine for 6 days, relative to RPLP0
Description: Human epidermal melanocytes from adult donor (Hema-LP) were purchased from Life Technologies. The cells were grown in 254 media with HMGS-2 and calcium chloride supplements in a humidified incubator containing 5% CO2 according to the manufacturer's instruction. For putrescine treatments, the cells were plated at an approximate density of 20,000/cm^2 the day before. Fresh media was added along with the respective drugs reconstituted in water (putrescine was purchased from Sigma Aldrich) to the cell cultures on day 0 and day 3 of experiment.
Total RNA was extracted from the cells using RNAeasy (Qiagen) according to manufacturer's instructions. 500 ng of total RNA was converted to complimentary DNA using RevertAid First Strand cDNA synthesis kit (Thermo Scientifc). It was diluted 1:25, and 4 ul of the diluted mixture was used as a template with specific primers using Luminaris Colour HiGreen Hi ROX master mix (Thermo Fisher Scientific) for qRT-PCR on an ABI PRISM 7900 sequence detection system. […] Expression levels detected by qPCR were normalized with ribosomal protein LP0 or L13A.

[6] = tested on: melanogenesis related proteins (TYR, TYRP1 and DCT) in NHEM-aLP cells; conditions: putrescine treated vs control, western blotting
Description: Human epidermal melanocytes from adult donor (Hema-LP) were purchased from Life Technologies. The cells were grown in 254 media with HMGS-2 and calcium chloride supplements in a humidified incubator containing 5% CO2 according to the manufacturer's instruction. For putrescine treatments, the cells were plated at an approximate density of 20,000/cm^2 the day before. Fresh media was added along with the respective drugs reconstituted in water (putrescine was purchased from Sigma Aldrich) to the cell cultures on day 0 and day 3 of experiment. The cells were lysed in RIPA buffer, and concentration of the cell lysate was determined by Pierce BCA Protein Assay Kit (Thermo Scientific). […] The membrane was blocked with 5% skim milk in TBST (0.1% Tween-20 (Sigma-Aldrich) in 1×TBS (0.1 M NaCl, 0.1 M Tris pH 7.4 in ddH2O; purchased from Biopolis Shared Facility) and incubated overnight at 4° C. with respective primary antibodies against TYR (sc-7833), TYRP1 (sc-10443), DCT (sc-10451) from Santa Cruz Biotechnology Inc and RPLP0 (AB126480) from Abcam at a dilution of 1:1000 in blocking buffer. The samples were then incubated with horseradish peroxidase-labeled anti-rabbit, or anti-goat IgG (Santa Cruz Biotechnology, Inc) at a dilution 1:5000 for 1 hour at 4° C. and immunoreactive bands were detected with enhanced chemiluminescent substrate (Thermo Fisher Scientific).

[7] = tested on: reconstructed epidermis (keratinocytes, melanocytes and fibroblasts); conditions: 2 mM Putrescine for 14 days, preliminary experiment
Description: The reconstructed epidermis (Denova Sciences) has normal human keratinocytes three dimensionally cultured at an air-liquid interface in a chemically defined medium, in the presence of melanocytes and fibroblasts. They were treated with 2 mM Putrescine for 14 days.

[8] = tested on: cultured human melanocytes; conditions: melanocytes cultured with putrescine
Description: To confirm that cultured human melanocytes do take up putrescine, the polycationic aliphatic amine content was measured in melanocytes cultured with and without putrescine.

[9] = tested on: human abdominal skin biopsies
Source text: The skin was them imaged, followed by sectioning and staining with Fontana Mason stain which stains for melanin.

[10] = tested on: NHEM-aLP cells; assay: MTS proliferation and cytotoxicity colorimetric assay
[11] = tested on: ATP13A3, SLC11A8 and Caveolin-1 in melanocytes; conditions: on addition of putrescine
[12] = tested on: NHEM-aLP cells; assay: Putrescine/spermidine treatment of melanocytes and melanin quantification; assay type: cell-based, human
Description: 2×10^5 cells were dissolved in 1 M sodium hydroxide solution and incubated at 80° C. for 2 hours. The absorbance of the cell lysates was measured at 405 nm in a microplate well reader.
2×10^5 cells were dissolved in 1M sodium hydroxide solution and incubated at 80° C. for 2 hours. The absorbance of the cell lysates was measured at 405 nm in a microplate well reader.

[13] = tested on: Human melanocytes; assay: MTT cell viability assay, melanocytes; conditions: increasing concentrations
Description: as §1

[14] = tested on: co-cultured human keratinocytes and melanocytes; assay: UV induced pigmentation in co-culture of melanocytes and keratinocytes; assay type: cell-based; conditions: co-culture under UV induction
Source text: On UV induction, keratinocytes signal to melanocytes to increase melanogenesis. This can be modeled through co-culture of human melanocytes and keratinocytes under UV induction.

[15] = tested on: Human keratinocytes; assay: MTT cell viability assay, keratinocytes; conditions: increasing concentrations (trimer44NMe up to 5 μM)
Description: as §1

For `CNCCCCNCCCCNCc1cc(CNCCCCNCCCCNC)cc(CNCCCCNCCCCNC)c1` [trimer44NMe], the “sensitivity of melanocyte viability” value [1] was “highly sensitive” and the “effect on putrescine induced pigmentation (melanin content)” value [2] was “blocked the ability of putrescine to promote pigmentation”.

For `NCCCCN` [putrescine, butane-1,4-diamine], the “melanin content on long term culture” value [3] was “sustained increase in melanin content”, the cell viability [4] was “no decrease in viability” and the “mRNA expression levels of TYR, TYRP1, DCT and PMEL” value [5] was “significant increase”. For the same compound, the “protein levels of TYR, TYRP1 and DCT” value [6] was “increased drastically”, the “pigmentation levels compared to control” value [7] was “increase in pigmentation levels” and the “intracellular levels of putrescine vs non-treated cells” value [8] was “dramatically higher”. For the same compound, the “intracellular levels of spermine” value [8] was “decrease in the levels of spermine”, the “darkening of the skin” value ([9]; incubated ten days) was “promoted darkening of the skin” and the “melanin stain within melanocytes and neighboring keratinocytes” value ([9]; ten days, Fontana Mason stain) was “increase in melanin stain”. For the same compound, the “maximum dose up to which NHEM-aLP can survive” value ([10]; 3 days treatment, MTS) was 2 mM, the effect on proliferation ([10]; doses between 0.5 mM and 2 mM, 3 days) was “mild proliferative effect” and the “protein level of Caveolin-1” value [11] was “decreases”. The “protein levels of polyamine transporters ATP13A3 and SLC11A8” value [11] was “increase”, the “cell morphology / dendrites” value ([12]; 2 mM putrescine, day 6) was “larger and flatter and displayed an increased number of dendrites” and the “visual darkening of the melanocytes” value ([12]; 2 mM putrescine, every 3 days for 6 days) was “drastic darkening effect”. The “increase in melanin content vs control” value ([12]; 2 mM putrescine, every 3 days for 6 days, NHEM-aLP cells) was 1.5-2 fold.

With `NCCCC(N)(C(=O)O)C(F)F` (racemic) [DFMO, (RS)-2,5-diamino-2-(difluoromethyl)pentanoic acid] the “sensitivity of melanocyte viability” value [13] was “comparatively insensitive”, the “UV induced pigmentation (melanin-containing keratinocytes)” value [14] was “inhibits UV induced pigmentation” and the “sensitivity of keratinocyte viability” value [15] was “sensitive”.

`NCCCCNCCCN` [spermidine, N′-(3-aminopropyl)butane-1,4-diamine] was tested, and the “melanin content of the cells, dose dependence” value ([12]; 0.05 mM and 0.5 mM spermidine, every 3 days for 6 days) was “dose dependant increase”, the “maximum fold change in melanin content” value ([12]; 0.5 mM spermidine, every 3 days for 6 days, NHEM-aLP cells) was 1.5-2 fold and the “concentration for similar melanin increase relative to putrescine (2 mM)” value ([12]; spermidine 0.5 mM vs putrescine 2 mM) was 4 times lower.
